Patent US20120202877A1 (priority 2009, published 2012)

The molecules below were run on A/Paris/1170/2007 (H1N1, Y274) (assay: microbe, parasite or virus in culture). Conditions: Influenza A virus, H1N1, 72 h, read-out: EC50, 50% reduction of the average plaque diameter.
Type: cell-based

Compound | EC50 [µM]
C=CCC1=C(C(=O)O)O[C@@H]([C@H](O)[C@H](O)CO)[C@H](NC(C)=O)[C@H]1O [Compound 7, 5-Acetamido-2,6-anhydro-3,5-dideoxy-3-C-(prop-2′-enyl)-D-glycero-D-galacto-non-2-en-onic acid] | 2200
CC(=O)NC1C(O)C(CC=Cc2ccc(C)cc2)=C(C(=O)O)OC1C(O)C(O)CO (stereo not drawn) [Compound 9d] | 40
CC(=O)N[C@H]1[C@H]([C@H](O)[C@H](O)CO)OC(C(=O)O)=C[C@@H]1O [Neu5Ac2en, reference compound] | 8
